Data: publication PMC6525171, “15-deoxy-Δ^12,14-Prostaglandin J2 inhibits human soluble epoxide hydrolase by a dual orthosteric and allosteric mechanism” (Communications Biology, 2019)
Positions count from the first letter of the chain named.

Tests used:
Format in all cases: biochemical
[1] = target: T1, human soluble epoxide hydrolase (hsEH CTD) (Homo sapiens, UniProt P34913, C423S/C522S); assay: PHOME spectrofluorimetric assay, Ki by Cheng-Prusoff
T1 construct: gene EPHX2; C-terminal domain, T230-M555
T1 sequence (P34913 230-555 C423S/C522S): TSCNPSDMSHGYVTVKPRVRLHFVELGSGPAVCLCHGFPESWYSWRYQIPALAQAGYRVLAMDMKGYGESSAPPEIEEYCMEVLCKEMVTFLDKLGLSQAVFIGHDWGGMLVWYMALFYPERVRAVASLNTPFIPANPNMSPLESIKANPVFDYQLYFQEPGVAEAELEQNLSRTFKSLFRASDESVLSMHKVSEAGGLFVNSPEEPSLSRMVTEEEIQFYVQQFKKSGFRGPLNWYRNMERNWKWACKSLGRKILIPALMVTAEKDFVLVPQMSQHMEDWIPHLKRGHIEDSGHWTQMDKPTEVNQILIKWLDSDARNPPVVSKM

[2] = target: T2, human soluble epoxide hydrolase (hsEH CTD) (Homo sapiens, UniProt P34913, C522S); assay: HPLC, UV and CD of purified covalent adduct; PHOME activity of adduct vs apoprotein
T2 construct: gene EPHX2; C-terminal domain, T230-M555
T2 sequence (P34913 230-555 C522S): T1 sequence (P34913 230-555 C423S/C522S) with S194C

[3] = target: T3, human soluble epoxide hydrolase (hsEH CTD) (Homo sapiens, UniProt P34913); assay: X-ray crystal structure ([…] Å, non-covalent complex), STD-NMR; ESI-MS and LC-MS/MS of covalent adducts; Ki from PHOME fluorescence assay
T3 construct: gene EPHX2; C-terminal domain, T230-M555
T3 sequence (P34913 230-555): T1 sequence (P34913 230-555 C423S/C522S) with S194C, S293C

[4] = target: T4, human soluble epoxide hydrolase (hsEH CTD) (Homo sapiens, UniProt P34913, C423S); assay: HPLC, UV and CD of purified covalent adduct; PHOME activity of adduct vs apoprotein
T4 construct: gene EPHX2; C-terminal domain, T230-M555
T4 sequence (P34913 230-555 C423S): T1 sequence (P34913 230-555 C423S/C522S) with S293C

Question: What does the source list for `CCCCC/C=C/C=C1/C(=O)C=C[C@@H]1C/C=C/CCCC(=O)O` [15d-PGJ2]?
Answer: Ki [1]: 8.56 µM; HPLC, UV and CD of purified covalent adduct; PHOME activity of adduct vs apoprot [2]: with the single modification of C423S and C522S mutants inhibiting the enzyme to a lesser extent; Ki [3]: 13 µM; HPLC, UV and CD of purified covalent adduct; PHOME activity of adduct vs apoprot [4]: with the single modification of C423S and C522S mutants inhibiting the enzyme to a lesser extent
